Measured values as given in patent US20170190671A1, “BIS(ARYL)CATECHOL DERIVATIVES AS HERBICIDES” (E I DU PONT DE NEMOURS AND COMPANY, priority 2014, published 2017).

Legend:
Assay in all cases: Test C preemergence
Type in all cases: in vivo
[1] = tested on: large (Lg) crabgrass (Digitaria sanguinalis); details: Digitaria sanguinalis, pre-emergence, 336 h, scale 0 to 100, read-out: Plant response rating, Crabgrass, Large
Summary of the method: (§1)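 Seeds sown in a loam soil and sand blend were treated preemergence; plants in peat-moss/vermiculite medium were sprayed at the 1- to 4-leaf stage (2-18 cm). Chemicals were in a non-phytotoxic surfactant-containing solvent. After 13 to 15 days in a greenhouse, injury was visually rated against controls on a 0-100 scale.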

[2] = tested on: soybean (Glycine max); details: Glycine max, pre-emergence, scale 0 to 100, read-out: Plant response rating, Soybean
Summary of the method: as §1

[3] = tested on: oilseed rape (Brassica napus); details: Brassica napus, pre-emergence, scale 0 to 100, read-out: Plant response rating, Oilseed Rape
Summary of the method: as §1

[4] = tested on: giant foxtail (Setaria faberii); details: Setaria faberi, pre-emergence, 336 h, scale 0 to 100, read-out: Plant response rating, Foxtail, Giant
Summary of the method: as §1

[5] = tested on: velvetleaf (Abutilon theophrasti); details: Abutilon theophrasti, pre-emergence, scale 0 to 100, read-out: Plant response rating, Velvetleaf
Summary of the method: as §1

[6] = tested on: yellow nutsedge (Cyperus esculentus); details: Cyperus, pre-emergence, 336 h, scale 0 to 100, read-out: Plant response rating, Nutsedge, Yellow
Summary of the method: as §1

[7] = tested on: pigweed (Amaranthus retroflexus); details: Amaranthus retroflexus, pre-emergence, 336 h, scale 0 to 100, read-out: Plant response rating, Pigweed
Summary of the method: as §1

[8] = tested on: blackgrass (Alopecurus myosuroides); details: Alopecurus myosuroides, pre-emergence, 336 h, scale 0 to 100, read-out: Plant response rating, Blackgrass
Summary of the method: as §1

[9] = tested on: lambsquarters (Chenopodium album); details: Chenopodium album, pre-emergence, 336 h, scale 0 to 100, read-out: Plant response rating, Lambsquarters
Summary of the method: as §1

[10] = tested on: winter wheat (Triticum aestivum); details: Triticum aestivum, pre-emergence, 336 h, scale 0 to 100, read-out: Plant response rating, Wheat
Summary of the method: as §1

[11] = tested on: galium (catchweed bedstraw, Galium aparine); details: Galium, pre-emergence, 336 h, scale 0 to 100, read-out: Plant response rating, Galium
Summary of the method: as §1

[12] = tested on: corn (Zea mays); details: Zea mays, pre-emergence, 336 h, scale 0 to 100
Summary of the method: as §1

[13] = tested on: morningglory (Ipomoea coccinea); details: Ipomoea, pre-emergence, 336 h, scale 0 to 100, read-out: Plant response rating, Morningglory
Summary of the method: as §1

[14] = tested on: barnyardgrass (Echinochloa crus-galli); details: Echinochloa crus-galli, pre-emergence, read-out: Plant response rating, Barnyardgrass
Summary of the method: as §1

[15] = tested on: ragweed (common ragweed, Ambrosia elatior); details: Ambrosia artemisiifolia, pre-emergence, 336 h, scale 0 to 100, read-out: Plant response rating, Ragweed
Summary of the method: as §1

## N#Cc1cccc(Oc2ncc(Cl)cn2)c1Oc1ccc(Br)cn1 [Compound 15]
[1]; 31 g ai/ha, preemergence
  pest or weed control at 31 g/ha: 100%
[1]; 62 g ai/ha, preemergence
  pest or weed control at 62 g/ha: 100%
[1]; 125 g ai/ha, preemergence
  pest or weed control at 125 g/ha: 100%
[1]; Preemergence, 16 g ai/ha
  pest or weed control at 16 g/ha: 75%
[2]; 31 g ai/ha, preemergence
  plant injury at 31 g/ha: 30%
[2]; 62 g ai/ha, preemergence
  plant injury at 62 g/ha: 40%
[2]; 125 g ai/ha, preemergence
  plant injury at 125 g/ha: 60%
[2]; Preemergence, 16 g ai/ha
  plant injury at 16 g/ha: 20%
[3]; 31 g ai/ha, preemergence
  plant injury at 31 g/ha: 98%
[3]; 62 g ai/ha, preemergence
  plant injury at 62 g/ha: 100%
[3]; 125 g ai/ha, preemergence
  plant injury at 125 g/ha: 100%
[3]; Preemergence, 16 g ai/ha
  plant injury at 16 g/ha: 25%
[4]; 31 g ai/ha, preemergence
  pest or weed control at 31 g/ha: 80%
[4]; 62 g ai/ha, preemergence
  pest or weed control at 62 g/ha: 100%
[4]; 125 g ai/ha, preemergence
  pest or weed control at 125 g/ha: 100%
[4]; Preemergence, 16 g ai/ha
  pest or weed control at 16 g/ha: 70%
[5]; 31 g ai/ha, preemergence
  pest or weed control at 31 g/ha: 75%
[5]; 62 g ai/ha, preemergence
  pest or weed control at 62 g/ha: 90%
[5]; 125 g ai/ha, preemergence
  pest or weed control at 125 g/ha: 100%
[5]; Preemergence, 16 g ai/ha
  pest or weed control at 16 g/ha: 60%
[6]; 31 g ai/ha, preemergence
  pest or weed control at 31 g/ha: 0%
[6]; 62 g ai/ha, preemergence
  pest or weed control at 62 g/ha: 0%
[6]; 125 g ai/ha, preemergence
  pest or weed control at 125 g/ha: 25%
[6]; Preemergence, 16 g ai/ha
  pest or weed control at 16 g/ha: 0%
[7]; 31 g ai/ha, preemergence
  pest or weed control at 31 g/ha: 100%
[7]; 62 g ai/ha, preemergence
  pest or weed control at 62 g/ha: 100%
[7]; 125 g ai/ha, preemergence
  pest or weed control at 125 g/ha: 100%
[7]; Preemergence, 16 g ai/ha
  pest or weed control at 16 g/ha: 80%
[8]; 31 g ai/ha, preemergence
  pest or weed control at 31 g/ha: 0%
[8]; 62 g ai/ha, preemergence
  pest or weed control at 62 g/ha: 10%
[8]; 125 g ai/ha, preemergence
  pest or weed control at 125 g/ha: 80%
[8]; Preemergence, 16 g ai/ha
  pest or weed control at 16 g/ha: 0%
[9]; 31 g ai/ha, preemergence
  pest or weed control at 31 g/ha: 80%
[9]; 62 g ai/ha, preemergence
  pest or weed control at 62 g/ha: 98%
[9]; 125 g ai/ha, preemergence
  pest or weed control at 125 g/ha: 95%
[9]; Preemergence, 16 g ai/ha
  pest or weed control at 16 g/ha: 70%
[10]; 31 g ai/ha, preemergence
  plant injury at 31 g/ha: 0%
[10]; 62 g ai/ha, preemergence
  plant injury at 62 g/ha: 5%
[10]; 125 g ai/ha, preemergence
  plant injury at 125 g/ha: 40%
[10]; Preemergence, 16 g ai/ha
  plant injury at 16 g/ha: 0%
[11]; 31 g ai/ha, preemergence
  pest or weed control at 31 g/ha: 100%
[11]; 62 g ai/ha, preemergence
  pest or weed control at 62 g/ha: 95%
[11]; 125 g ai/ha, preemergence
  pest or weed control at 125 g/ha: 100%
[11]; Preemergence, 16 g ai/ha
  pest or weed control at 16 g/ha: 100%
[12]; 31 g ai/ha, preemergence
  Corn plant response rating (crop injury, 0 = no effect, 100 = complete kill) at 31 g/ha: 0%
[12]; 62 g ai/ha, preemergence
  Corn plant response rating (crop injury, 0 = no effect, 100 = complete kill) at 62 g/ha: 5%
[12]; 125 g ai/ha, preemergence
  Corn plant response rating (crop injury, 0 = no effect, 100 = complete kill) at 125 g/ha: 40%
[12]; Preemergence, 16 g ai/ha
  Corn plant response rating (crop injury, 0 = no effect, 100 = complete kill) at 16 g/ha: 0%
[13]; 31 g ai/ha, preemergence
  pest or weed control at 31 g/ha: 5%
[13]; 62 g ai/ha, preemergence
  pest or weed control at 62 g/ha: 40%
[13]; 125 g ai/ha, preemergence
  pest or weed control at 125 g/ha: 70%
[13]; Preemergence, 16 g ai/ha
  pest or weed control at 16 g/ha: 5%
[14]; 31 g ai/ha, preemergence, scale 0 to 100
  pest or weed control at 31 g/ha: 25%
[14]; 62 g ai/ha, preemergence, scale 0 to 100
  pest or weed control at 62 g/ha: 70%
[14]; 125 g ai/ha, preemergence, scale 0 to 100
  pest or weed control at 125 g/ha: 98%
[14]; Preemergence, 16 g ai/ha, scale 0 to 100 (0 no effect, 100 complete control)
  pest or weed control at 16 g/ha: 10%
[15]; 31 g ai/ha, preemergence
  pest or weed control at 31 g/ha: 30%
[15]; 62 g ai/ha, preemergence
  pest or weed control at 62 g/ha: 50%
[15]; 125 g ai/ha, preemergence
  pest or weed control at 125 g/ha: 40%
[15]; Preemergence, 16 g ai/ha
  pest or weed control at 16 g/ha: 0%
